Earlier results in patent US20110064803A1, “NANOPARTICULATE AND CONTROLLED RELEASE COMPOSITIONS COMPRISING VITAMIN K2” (ELAN PHARMA INTERNATIONAL LIMITED., priority 2005, published 2011).
Where two headings read alike, the source gives them in different places.

Experiments:
[1] = not given; remark: listed apart in the source
[2] = oral

Row | SMILES | Solubility in ethanol (99.5) (ethanol (99.5)) | Solubility in hexane (hexane) | Solubility in methanol (methanol) | Solubility in water (water) | Stability to light [1] | Persistence of drug effects ([2]; conventional IR tablets) [h] | Persistence of drug effects ([2]; extended release formulations)
1 | CC(C)=CCC/C(C)=C/CC/C(C)=C/CC/C(C)=C/CC1=C(C)C(=O)c2ccccc2C1=O [Vitamin K2] | soluble | very soluble | slightly soluble | practically insoluble | decomposes and the color becomes more intense by light |  | 
2 | COC(=O)C(c1ccccc1)C1CCCCN1 (stereo not drawn) [methylphenidate, α-phenyl-2-piperidine acetic acid methyl ester] |  |  |  |  |  | 3 to 6 | up to 8 hours
